Experimental data reported in ChEMBL document CHEMBL3639134, “Diphenylmethane derivatives as SGLT2 inhibitors” (2015).

Each compound was assayed against T1, Sodium/glucose cotransporter 2 (Homo sapiens, UniProt P31639) (assay: Inhibition Assay: For sodium-dependent glucose transport assay, cells expressing hSGLT2 were seeded into a 96-well culture plate at a density of 5x10^4 cells/well in RPMI medium 1640 containing 10% fetal bovine serum. The cells were used 1 day after plating. They were incubated in pretreatment buffer (10 mM HEPES, 5 mM Tris, 140 mM choline chloride, 2 mM KCl, 1 mM CaCl2, and 1 mM MgCl2, pH 7.4) at 37 C. for 10 min. They were then incubated in uptake buffer (10 mM HEPES, 5 mM Tris, 140 mM NaCl, 2 mM KCl, 1 mM CaCl2, 1 mM MgCl2, and 1 mM 14C-nonlabeled AMG pH 7.4) containing 14C-labeled AMG (8 uM) and the inventive compound or dimethyl sulfoxide (DMSO) vehicle at 37 C. for 2 h. Cells were washed twice with washing buffer (pretreatment buffer containing 10 mM AMG at room temperature) and then the radioactivity was measured using a liquid scintillation counter. IC50 was determined by nonlinear regression analysis using GraphPad PRISM [Katsuno, K. et al. J. Pharmacol. Exp. Ther. 2007, 320, 323-330].).
T1 sequence (P31639 whole entry): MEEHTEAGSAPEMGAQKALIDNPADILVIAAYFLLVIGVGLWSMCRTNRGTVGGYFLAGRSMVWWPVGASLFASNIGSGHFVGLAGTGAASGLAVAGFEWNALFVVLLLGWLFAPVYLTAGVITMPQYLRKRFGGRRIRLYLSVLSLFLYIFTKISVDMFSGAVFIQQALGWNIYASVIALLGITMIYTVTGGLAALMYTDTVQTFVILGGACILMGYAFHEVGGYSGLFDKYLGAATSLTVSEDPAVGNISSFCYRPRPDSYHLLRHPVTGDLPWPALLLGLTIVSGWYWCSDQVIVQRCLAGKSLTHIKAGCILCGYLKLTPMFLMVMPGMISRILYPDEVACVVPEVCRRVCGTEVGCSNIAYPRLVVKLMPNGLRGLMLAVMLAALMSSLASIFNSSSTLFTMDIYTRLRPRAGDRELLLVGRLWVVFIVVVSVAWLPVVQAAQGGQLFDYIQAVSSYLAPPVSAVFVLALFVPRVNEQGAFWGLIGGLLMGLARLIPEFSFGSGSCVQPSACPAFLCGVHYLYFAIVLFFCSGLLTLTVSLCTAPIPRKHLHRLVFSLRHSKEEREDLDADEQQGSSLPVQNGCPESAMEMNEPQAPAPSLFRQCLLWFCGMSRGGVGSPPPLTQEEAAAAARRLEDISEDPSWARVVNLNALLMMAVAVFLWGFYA

In order of rising IC50:
1. CCOc1ccc(Cc2cc([C@@H]3O[C@H](CO)[C@@H](O)[C@H](O)[C@H]3O)c3c(c2Cl)OCO3)cc1  1.08 nM
2. OC[C@H]1O[C@@H](c2cc(Cc3ccc(N4CCC4)cc3)c(Cl)c3c2CCC3)[C@H](O)[C@@H](O)[C@@H]1O  1.75 nM
3. CCOc1ccc(Cc2cc([C@@H]3O[C@H](CO)[C@@H](O)[C@H](O)[C@H]3O)c3c(c2Cl)NCCO3)cc1  2.42 nM
4. OC[C@H]1O[C@@H](c2cc(Cc3ccc(N4CCC4)cc3)c(Cl)c3c2CCO3)[C@H](O)[C@@H](O)[C@@H]1O  3.49 nM
5. CCOc1ccc(Cc2cc([C@@H]3O[C@H](CO)[C@@H](O)[C@H](O)[C@H]3O)c3c(c2C2CC2)OCC3)cc1  13.8 nM
